Measured values as given in patent publication US6835808B2, “Anti-heparin peptides” (Diagnostica-Stago, priority 2000, dated 2004).

Legend:
[1] = tested on: UFH (unfractionated heparin, Calciparine) in plasma; test: Anti-heparin power in a PT (Quick time) test with thromboplastin reagent, heparinized vs nonheparinized plasma; type: biochemical; settings: anti-heparin agent at 5 μg/ml in thromboplastin reagent; pool of normal plasma with 0 vs 1 IU/ml UFH; delta relative clotting time
Protocol: The aim is to analyze the performance (anti-heparin power and turbidity) of anti-heparin agents incorporated into a Diagnostica Stago thromboplastin reagent.
Analysis of the anti-heparin power: This is the ability of the anti-heparin agent to make the reagent insensitive to the heparin contained in the blood sample:
The test samples are prepared from a pool of normal plasma which may or may not be overloaded with heparin (plasma heparinized with 1 IU/ml of UFH (Calciparine 25 000 IU/ml, Sanofi)).
Comment: a reagent serving as a negative control, i.e. without anti-heparin agent, is of use to verify the heparinization of the plasma.
To determine the Quick Time, the automated device (STA Diagnostica Stago—patent EP 0325874) removes 50 μl of sample plasma, which it allows to incubate at 37° C. for 240 seconds in a cupule containing a bead; it then transfers the cupule into the measuring area and adds 100 μl of thromboplastin reagent to the sample.
The clotting time was determined in the following way: At constant viscosity, the amplitude of oscillation of the bead in the cupule (oscillation maintained using an electromagnetic field) is constant. When the viscosity increases (clotting phenomenon), the amplitude of oscillation of the bead decreases.
An algorithm uses this variation in amplitude to determine the clotting time.
The anti-heparin power is calculated in the following way: determination of the delta relative time between a heparinized and nonheparinized plasma, i.e.:
[{CT(heparinized plasma)−CT(nonheparinized plasma)}/TC(nonheparinized plasma)×100]
The anti-heparin power of the compounds according to the invention is estimated to be significant when this delta time is less than 10%.

[2] = Turbidity of the thromboplastin reagent containing the anti-heparin agent (OD at 630 nm); type: physicochemical; settings: anti-heparin agent at 5 μg/ml in thromboplastin-type reagent
Protocol: The turbidity should be as low as possible for an application in diagnosis, and more particularly in a thromboplastin test (PT).
This turbidity is determined by measuring the OD at 630 nm on a spectrophotometer (Uvikon 940, Kontron).
Comment: a reagent serving as a negative control, i.e. without anti-heparin agent, is of use to measure the influence of this anti-heparin agent on the turbidity of the reagent.

| Turbidity OD 630 nm [2] | Substance | Anti-UFH power Delta time 0/1 IU/ml (in %) [1] |
| --- | --- | --- |
| 0.399 OD | Pro-K4-AHA-K4-APA-K3-APA-K3 [compound 1394] | 6.4% |
| 0.488 OD | Pro-K4-AHA-K4-APA-K4-APA-K2 [compound 1401] | 8.1% |
| 0.323 OD | Pro-K4-(AHA)2-K4-AHA-K4-AHA-K2 [compound 1405] | 4.2% |
| 0.086 OD | Pro-K4-(AHA)2-K4-AHA-K3-AHA-K2 [compound 1411] | 6.5% |
| 0.147 OD | Pro-K4-AHA-K3-APA-K3-APA-K2 [compound 1404] | 7.6% |

The next lines start with the substance.

| Substance | Turbidity OD 630 nm [2] | Anti-UFH power Delta time 0/1 IU/ml (in %) [1] |
| --- | --- | --- |
| Pro-K3-AHA-K4-APA-K4-APA-K2 [1403PK] | 0.283 OD | 8.7% |
| Pro-K3-AHA-K4-APA-K4-APA-K2 [1403P] | 0.205 OD | 7.1% |
| PGlu-K4-(AHA)2-K4-AHA-K4-AHA-K2 [1415-5] | 0.069 OD | 4.5% |
| THC-K4-(AHA)2-K4-AHA-K4-AHA-K2 [1415-4] | 0.148 OD | 5.9% |
| Thi-K4-(AHA)2-K4-AHA-K4-AHA-K2 [1415-2] | 0.104 OD | 5.7% |
| Pro-K4-AHA-K3-APA-K4-APA-K3 [1408-2] | 0.040 OD | 6.9% |
| Hyp-K4-(AHA)2-K4-AHA-K4-AHA-K2 [1415-3] | 0.134 OD | 3.4% |
